Results from publication PMC5355235, “FLT3 activating mutations display differential sensitivity to multiple tyrosine kinase inhibitors” (Oncotarget, 2017).
Changes are numbered by the printed parent chain.

Assays:
Type in all cases: cell-based
FLT3 D835Y = target: T1, FLT3 D835Y (Homo sapiens, UniProt P36888, D835Y); experiment: FLT3 autophosphorylation, immunoprecipitation/Western blot, D835Y; details: FLT3 D835Y cells, highest concentrations tested, 1 h
T1 construct: expressed in transfected cells; host or cells: BaF3
T1 sequence (P36888 27-993 D835Y): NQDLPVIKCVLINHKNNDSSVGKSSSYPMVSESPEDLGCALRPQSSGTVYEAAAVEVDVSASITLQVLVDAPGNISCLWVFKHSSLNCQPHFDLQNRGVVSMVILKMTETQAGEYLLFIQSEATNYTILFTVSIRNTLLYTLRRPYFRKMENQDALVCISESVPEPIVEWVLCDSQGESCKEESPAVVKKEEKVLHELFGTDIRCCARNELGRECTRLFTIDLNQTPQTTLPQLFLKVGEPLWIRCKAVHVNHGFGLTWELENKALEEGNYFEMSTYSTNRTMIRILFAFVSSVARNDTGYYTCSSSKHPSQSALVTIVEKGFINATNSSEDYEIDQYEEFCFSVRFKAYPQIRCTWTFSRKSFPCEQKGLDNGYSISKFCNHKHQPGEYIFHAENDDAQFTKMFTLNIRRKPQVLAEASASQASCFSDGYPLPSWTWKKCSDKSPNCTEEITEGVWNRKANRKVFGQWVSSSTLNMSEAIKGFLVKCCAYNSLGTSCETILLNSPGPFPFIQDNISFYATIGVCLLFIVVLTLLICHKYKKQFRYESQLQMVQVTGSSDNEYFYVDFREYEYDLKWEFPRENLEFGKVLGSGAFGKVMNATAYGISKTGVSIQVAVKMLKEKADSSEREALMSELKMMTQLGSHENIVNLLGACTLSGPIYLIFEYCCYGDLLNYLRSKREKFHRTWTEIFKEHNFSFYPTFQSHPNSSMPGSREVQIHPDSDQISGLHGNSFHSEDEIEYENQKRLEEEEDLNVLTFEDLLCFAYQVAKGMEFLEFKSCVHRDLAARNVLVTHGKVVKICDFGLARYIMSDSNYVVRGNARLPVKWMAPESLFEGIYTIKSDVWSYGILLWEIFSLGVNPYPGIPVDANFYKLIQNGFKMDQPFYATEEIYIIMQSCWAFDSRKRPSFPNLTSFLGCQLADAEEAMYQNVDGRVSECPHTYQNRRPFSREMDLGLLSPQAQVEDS
Procedure: Activated FLT3 expression was measured by performing immunoprecipitation, SDS-PAGE and Western blotting as previously described. Specifically, 10^7 cells were washed in medium and treated with inhibitor for 1 h followed by stimulation with 25 ng/ml of FLT3 ligand for 15 minutes where indicated. Cells were washed twice with ice-cold PBS and lysed in 300 µl of NP-40 lysis buffer (150 mM NaCl, 20 mM TrisHCl (pH7.4), 10% glycerol, 1% NP-40, 10 mM EDTA, 100 mM NaF) with 2 mM Na3VO4 and protease inhibitors (Complete Tablets, Roche, Mannheim, Germany) at 4°C for 30 m. Cell lysate was harvested by centrifugation at 13,000 × g for 30 m at 4°C. FLT3 S-18 antibody was incubated with 500 µg lysate overnight at 4°C followed by immunoprecipitation with protein A-agarose beads for 2 h. Beads were washed once in Tris buffered saline with 1% Tween-20 (TBST) and twice in TBS. Samples were boiled in sodium dodecyl sulfate (SDS) sample buffer prior to separating in a 8% SDS-polyacrylamide gel (SDS-PAGE). Proteins were transferred to a polyvinyl diflouride (PVDF) membrane (Millipore, Bedford, MA, USA) and detected by 4G10 phosphotyrosine antibody and anti-FLT3 S-18 antibody. FLT3 was visualized using the Odyssey Infra Red Imaging System from Li-Cor (Lincoln, NE, USA) using AlexaFluor 680 goat anti-mouse and AlexaFluor 800 goat anti-rabbit antibodies. […]

wild-type FLT3 = target: T2, wild-type FLT3 (Homo sapiens, UniProt P36888); experiment: Wild-type FLT3 autophosphorylation in FL-stimulated BaF3/WT-FLT3 cells; details: TKI 1 h, then 25 ng/ml human FLT3 ligand 15 min
T2 construct: expressed in transfected cells; host or cells: BaF3
T2 sequence (P36888 27-993): T1 sequence (P36888 27-993 D835Y) with Y809D
Procedure: Figure 3 Inhibition of wild-type FLT3 signaling pathways by FLT3 TKI BaF3/WT-FLT3 cells were treated with FLT3 TKI at the indicated concentrations for 1 h at 37°C then stimulated with 25ng/ml of human FLT3 ligand for 15 minutes, followed by immunoprecipitation for FLT3, SDS-PAGE and WB for FLT3 and phospho-FLT3 (PFLT3).
Activated FLT3 expression was measured by performing immunoprecipitation, SDS-PAGE and Western blotting as previously described. […] Specifically, 10^7 cells were washed in medium and treated with inhibitor for 1 h followed by stimulation with 25 ng/ml of FLT3 ligand for 15 minutes where indicated. Cells were washed twice with ice-cold PBS and lysed in 300 µl of NP-40 lysis buffer (150 mM NaCl, 20 mM TrisHCl (pH7.4), 10% glycerol, 1% NP-40, 10 mM EDTA, 100 mM NaF) with 2 mM Na3VO4 and protease inhibitors (Complete Tablets, Roche, Mannheim, Germany) at 4°C for 30 m. Cell lysate was harvested by centrifugation at 13,000 × g for 30 m at 4°C. FLT3 S-18 antibody was incubated with 500 µg lysate overnight at 4°C followed by immunoprecipitation with protein A-agarose beads for 2 h. Beads were washed once in Tris buffered saline with 1% Tween-20 (TBST) and twice in TBS. […] Proteins were transferred to a polyvinyl diflouride (PVDF) membrane (Millipore, Bedford, MA, USA) and detected by 4G10 phosphotyrosine antibody and anti-FLT3 S-18 antibody. […]

FLT3/ITD = FLT3/ITD autophosphorylation and signaling pathways, Western blot; details: FLT3/ITD cells, 1 h, concentration-dependent
Procedure: Activated FLT3 expression was measured by performing immunoprecipitation, SDS-PAGE and Western blotting as previously described. Specifically, 10^7 cells were washed in medium and treated with inhibitor for 1 h followed by stimulation with 25 ng/ml of FLT3 ligand for 15 minutes where indicated. Cells were washed twice with ice-cold PBS and lysed in 300 µl of NP-40 lysis buffer (150 mM NaCl, 20 mM TrisHCl (pH7.4), 10% glycerol, 1% NP-40, 10 mM EDTA, 100 mM NaF) with 2 mM Na3VO4 and protease inhibitors (Complete Tablets, Roche, Mannheim, Germany) at 4°C for 30 m. Cell lysate was harvested by centrifugation at 13,000 × g for 30 m at 4°C. FLT3 S-18 antibody was incubated with 500 µg lysate overnight at 4°C followed by immunoprecipitation with protein A-agarose beads for 2 h. Beads were washed once in Tris buffered saline with 1% Tween-20 (TBST) and twice in TBS. Samples were boiled in sodium dodecyl sulfate (SDS) sample buffer prior to separating in a 8% SDS-polyacrylamide gel (SDS-PAGE). Proteins were transferred to a polyvinyl diflouride (PVDF) membrane (Millipore, Bedford, MA, USA) and detected by 4G10 phosphotyrosine antibody and anti-FLT3 S-18 antibody. FLT3 was visualized using the Odyssey Infra Red Imaging System from Li-Cor (Lincoln, NE, USA) using AlexaFluor 680 goat anti-mouse and AlexaFluor 800 goat anti-rabbit antibodies. Phosphorylation of the FLT3 downstream signaling mediators, STAT5, AKT and MAP kinase was investigated by loading 50 µg of whole cell lysate and probing with the indicated antibodies. The membrane was washed and incubated in goat anti-rabbit secondary antibody conjugated to horseradish peroxidase followed by enhanced chemiluminescence (ECL). The membrane was subsequently stripped in 200 mM glycine buffer, pH 2.5 with 0.1% Tween-20 and reprobed for STAT5, AKT and MAP kinase expression using the respective antibodies.

## Cc1cc2ncc(-c3ccccc3)nc2cc1C [AG1295]
FLT3 D835Y
  Inhibition of FLT3 autophosphorylation: markedly reduced or absent inhibition
wild-type FLT3
  IC50: 500 nM
FLT3/ITD
  Inhibition of FLT3 autophosphorylation and phosphorylation of STAT5, AKT and Map kinase: inhibited FLT3 autophosphorylation
